Reference: patent US20090191193A1, “Aryl Vinyl Sulfides, Sulfones, Sulfoxides and Sulfonamides, Derivatives Thereof and Therapeutic Uses Thereof” (TEMPLE UNIVERSITY-OF THE COMMONWEALTH SYSTEM OF HIGHER …, priority 2006, published 2009)

Columns and labels:
[1] = tested on: K562 (chronic myelogenous leukaemia); test: Effect on tumor cell lines, viable cell count by trypan blue exclusion (Latham et al.): K562; assay type: cell-based; conditions: K562 chronic myelogenous leukaemia cells, viable cell count 96 hours after treatment
[2] = tested on: DU145 (prostate cancer); test: Effect on tumor cell lines, viable cell count by trypan blue exclusion (Latham et al.): DU145; assay type: cell-based; conditions: DU145 prostate cancer cells, viable cell count 96 hours after treatment

Compound	melting point [°C]	IC50 ([1]; Homo sapiens, K562, 96 h) [µM]	IC50 ([2]; Homo sapiens, DU-145, 96 h) [µM]	IC50 [1] [µM]	IC50 [2] [µM]
Cc1ccc(C)c(/C=C(\C#N)S(=O)(=O)Nc2ccc(Br)cc2)c1 [Example 229]	172 to 174	25 to 50	50 to 100	–	–
COc1cc(OC)c(/C=C(\C#N)S(=O)(=O)Nc2ccc(F)cc2)c(OC)c1 [Example 232]	169 to 171	25 to 50	50 to 100	–	–
N#C/C(=C\c1c(F)c(F)c(F)c(F)c1F)S(=O)(=O)Nc1ccc(F)cc1 [Example 234]	150 to 152	< 1	1 to 10	–	–
N#C/C(=C\c1cc(Cl)cc(Cl)c1Cl)S(=O)(=O)Nc1ccc(F)cc1 [Example 243]	184 to 186	10 to 25	10 to 25	–	–
N#C/C(=C\c1ccc(F)c(Cl)c1)S(=O)(=O)Nc1ccc(F)cc1 [Example 245]	118 to 120	50 to 100	50 to 100	–	–
COc1cc(/C=C(\C#N)S(=O)(=O)Nc2ccc(F)cc2)cc(OC)c1OC [Example 249]	179 to 182	> 100	> 100	–	–
N#C/C(=C\c1c[nH]c2ccc(Br)cc12)S(=O)(=O)Nc1ccc(F)cc1 [Example 250]	167 to 169	50 to 100	> 100	–	–
Cc1ccc(NS(=O)(=O)/C(C#N)=C/c2ccccc2OCc2ccccc2)c(C)c1 [Example 252]	177 to 179	10 to 25	25 to 50	–	–
Cc1ccc(NS(=O)(=O)/C(C#N)=C/c2c[nH]c3ccccc23)c(C)c1 [Example 253]	192 to 194	25 to 50	50 to 100	–	–
COc1cc(OC)c(/C=C(\C#N)S(=O)(=O)Nc2ccc(C)cc2C)c(OC)c1 [Example 254]	132 to 134	50 to 100	50 to 100	–	–
Cc1ccc(NS(=O)(=O)/C(C#N)=C/c2ccc(N(C)C)cc2)c(C)c1 [Example 255]	168 to 171	25 to 50	25 to 50	–	–
Cc1ccc(NS(=O)(=O)/C(C#N)=C/c2ccccc2Cl)c(C)c1 [Example 256]	116 to 119	1 to 10	25 to 50	–	–
Cc1ccc(NS(=O)(=O)/C(C#N)=C/c2sccc2C)c(C)c1 [Example 257]	166 to 168	10 to 25	50 to 100	–	–
COc1cc(OC)c(OC)cc1/C=C(\C#N)S(=O)(=O)Nc1ccc(C)cc1C [Example 258]	161 to 163	50 to 100	> 100	–	–
Cc1ccc(NS(=O)(=O)/C(C#N)=C/c2cc(C)ccc2C)c(C)c1 [Example 259]	139 to 141	50 to 100	> 100	–	–
COc1ccc(/C=C(\C#N)S(=O)(=O)Nc2ccc(C)cc2C)c(F)c1 [Example 261]	142 to 144	50 to 100	> 100	–	–
Cc1ccc(NS(=O)(=O)/C(C#N)=C/c2ccc(Br)cc2)c(C)c1 [Example 262]	164 to 166	10 to 25	25 to 50	–	–
Cc1ccc(NS(=O)(=O)/C(C#N)=C/c2cc(Cl)cc(Cl)c2Cl)c(C)c1 [Example 263]	171 to 173	< 1	< 1	–	–
Cc1ccc(NS(=O)(=O)/C(C#N)=C/c2ccc(C)c(C)c2)c(C)c1 [Example 264]	166 to 169	> 100	> 100	–	–

Compound	melting point [°C]	IC50 ([1]; Homo sapiens, K562, 96 h) [µM]	IC50 ([2]; Homo sapiens, DU-145, 96 h) [µM]	IC50 [1] [µM]	IC50 [2] [µM]
Cc1ccc(NS(=O)(=O)/C(C#N)=C/c2ccc(C)s2)c(C)c1 [Example 265]	158 to 160	25 to 50	50 to 100	–	–
Cc1ccc(NS(=O)(=O)/C(C#N)=C/c2ccc(Cl)cc2)c(C)c1 [Example 267]	158 to 161	50 to 100	50 to 100	–	–
COc1cc(/C=C(\C#N)S(=O)(=O)Nc2ccc(C)cc2C)cc(OC)c1OC [Example 268]	178 to 180	50 to 100	> 100	–	–
Cc1ccc(NS(=O)(=O)/C(C#N)=C/c2c[nH]c3ccc(Br)cc23)c(C)c1 [Example 269]	231 to 235	1 to 10	1 to 10	–	–
COc1ccc(/C=C(\C#N)S(=O)(=O)Nc2ccc(C)cc2C)cc1 [Example 270]	127 to 129	> 100	> 100	–	–
Cc1ccc(NS(=O)(=O)/C(C#N)=C/c2ccc(O)cc2)c(C)c1 [Example 271]	152 to 154	> 100	> 100	–	–
COc1ccc(/C=C(\C#N)S(=O)(=O)Nc2ccc(C)cc2C)c(OC)c1OC [Example 272]	124 to 125	> 100	> 100	–	–
CCOc1ccc(/C=C(\C#N)S(=O)(=O)Nc2ccc(C)cc2C)cc1OC [Example 273]	146 to 150	> 100	> 100	–	–
Cc1ccc(NS(=O)(=O)/C(C#N)=C/c2ccc(Cl)c(Cl)c2)c(C)c1 [Example 274]	141 to 143	50 to 100	50 to 100	–	–
CCOc1cc(/C=C(\C#N)S(=O)(=O)Nc2ccc(C)cc2C)ccc1O [Example 275]	146 to 148	50 to 100	> 100	–	–
COc1ccc(NS(=O)(=O)/C(C#N)=C/c2ccccc2OCc2ccccc2)cc1 [Example 277]	111 to 112	10 to 25	10 to 25	–	–
COc1ccc(NS(=O)(=O)/C(C#N)=C/c2c(OC)cc(OC)cc2OC)cc1 [Example 279]	151 to 154	–	–	10 to 25	25 to 50
COc1ccc(NS(=O)(=O)/C(C#N)=C/c2ccc(N(C)C)cc2)cc1 [Example 280]	166 to 169	50 to 100	> 100	–	–
COc1ccc(NS(=O)(=O)/C(C#N)=C/c2sccc2C)cc1 [Example 281]	154 to 156	> 100	> 100	–	–
COc1ccc(NS(=O)(=O)/C(C#N)=C/c2cc(C)ccc2C)cc1 [Example 282]	125 to 127	50 to 100	50 to 100	–	–
COc1ccc(NS(=O)(=O)/C(C#N)=C/c2ccc(C)s2)cc1 [Example 283]	118 to 121	> 100	> 100	–	–
COc1ccc(NS(=O)(=O)/C(C#N)=C/c2cc(OC)c(OC)cc2OC)cc1 [Example 284]	171 to 173	25 to 50	> 100	–	–
COc1ccc(NS(=O)(=O)/C(C#N)=C/c2ccc(OC)c(OC)c2OC)cc1 [Example 285]	140 to 142	50 to 100	> 100	–	–

The next lines start with the values.

melting point [°C]	IC50 ([1]; Homo sapiens, K562, 96 h) [µM]	IC50 ([2]; Homo sapiens, DU-145, 96 h) [µM]	IC50 [1] [µM]	IC50 [2] [µM]	Compound
127 to 129	10 to 25	25 to 50	–	–	N#C/C(=C\c1ccccc1OCc1ccccc1)S(=O)(=O)Nc1ccc(F)cc1 [Example 230]
202 to 204	25 to 50	50 to 100	–	–	N#C/C(=C\c1c[nH]c2ccccc12)S(=O)(=O)Nc1ccc(F)cc1 [Example 231]
179 to 180	50 to 100	> 100	–	–	CN(C)c1ccc(/C=C(\C#N)S(=O)(=O)Nc2ccc(F)cc2)cc1 [Example 233]
182 to 184	10 to 25	25 to 50	–	–	N#C/C(=C\c1ccccc1Cl)S(=O)(=O)Nc1ccc(F)cc1 [Example 235]
179 to 181	50 to 100	> 100	–	–	Cc1ccsc1/C=C(\C#N)S(=O)(=O)Nc1ccc(F)cc1 [Example 236]
184 to 186	> 100	> 100	–	–	COc1cc(OC)c(OC)cc1/C=C(\C#N)S(=O)(=O)Nc1ccc(F)cc1 [Example 237]
161 to 164	50 to 100	> 100	–	–	Cc1ccc(C)c(/C=C(\C#N)S(=O)(=O)Nc2ccc(F)cc2)c1 [Example 238]
135 to 139	50 to 100	50 to 100	–	–	N#C/C(=C\c1ccc(F)cc1F)S(=O)(=O)Nc1ccc(F)cc1 [Example 240]
142 to 144	50 to 100	> 100	–	–	COc1ccc(/C=C(\C#N)S(=O)(=O)Nc2ccc(F)cc2)c(F)c1 [Example 241]
130 to 132	50 to 100	50 to 100	–	–	N#C/C(=C\c1ccc(Br)cc1)S(=O)(=O)Nc1ccc(F)cc1 [Example 242]
141 to 142	> 100	> 100	–	–	Cc1ccc(/C=C(\C#N)S(=O)(=O)Nc2ccc(F)cc2)cc1C [Example 244]
133 to 134	> 100	> 100	–	–	Cc1ccc(/C=C(\C#N)S(=O)(=O)Nc2ccc(F)cc2)s1 [Example 246]
152 to 154	> 100	> 100	–	–	COc1ccccc1/C=C(\C#N)S(=O)(=O)Nc1ccc(F)cc1 [Example 247]
108 to 110	50 to 100	> 100	–	–	N#C/C(=C\c1ccc(Cl)cc1)S(=O)(=O)Nc1ccc(F)cc1 [Example 248]
150 to 152	> 100	> 100	–	–	CCOc1ccc(/C=C(\C#N)S(=O)(=O)Nc2ccc(F)cc2)cc1OC [Example 251]
136 to 139	50 to 100	> 100	–	–	COc1ccccc1/C=C(\C#N)S(=O)(=O)Nc1ccc(C)cc1C [Example 266, (E)-2-[(2,4-dimethylphenyl)sulfamoyl]-3-(2-methoxyphenyl)acrylonitrile]
201 to 205	50 to 100	50 to 100	–	–	COc1ccc(NS(=O)(=O)/C(C#N)=C/c2c[nH]c3ccccc23)cc1 [Example 278]
